# Assay results: patent US10336761B2, “TGFβ receptor antagonist” (BRISTOL-MYERS SQUIBB COMPANY, priority 2015, dated 2019)
# Target: HIS-TGFβR1 T204D (Homo sapiens (Human), UniProt P36897, T204D)
# Assay: HTRF probe-displacement assay, HIS-TGFβR1 T204D
# Format: binding
# Settings: 1 hour at room temperature
# HIS-TGFβR1 T204D, sequence (P36897 34-503 T204D): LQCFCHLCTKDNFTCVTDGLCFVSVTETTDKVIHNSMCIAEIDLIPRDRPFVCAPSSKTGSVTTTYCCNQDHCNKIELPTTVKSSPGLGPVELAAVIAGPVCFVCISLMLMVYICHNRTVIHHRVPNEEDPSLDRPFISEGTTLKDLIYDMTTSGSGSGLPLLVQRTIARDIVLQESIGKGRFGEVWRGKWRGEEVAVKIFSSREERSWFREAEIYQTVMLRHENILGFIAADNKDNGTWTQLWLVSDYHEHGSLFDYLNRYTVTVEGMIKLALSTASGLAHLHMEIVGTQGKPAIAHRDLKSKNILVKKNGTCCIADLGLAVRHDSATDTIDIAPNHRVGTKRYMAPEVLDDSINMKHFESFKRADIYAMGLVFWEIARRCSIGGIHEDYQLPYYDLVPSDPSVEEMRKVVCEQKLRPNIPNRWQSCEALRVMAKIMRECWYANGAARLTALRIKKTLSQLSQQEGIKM
row,Structure (SMILES),IC50 [nM]
1,"COc1cccc(-c2nc(Nc3ccnc(NCCN4CCC(O)CC4)c3)c3c(C)ccn3n2)n1 [Example 136, 1-{2-[(4-{[2-(6-methoxypyridin-2-yl)-5-methylpyrrolo[2,1-f][1,2,4]triazin-4-yl]amino}pyridin-2-yl)amino]ethyl}piperidin-4-ol]",720
2,"Fc1cnccc1Nc1nc(-c2ccccn2)nn2ccc(CNCC3CNC3)c12 [Example 266, N-(5-{[(azetidin-3-ylmethyl)amino]methyl}-2-(pyridin-2-yl)pyrrolo[2,1-f][1,2,4]triazin-4-yl)-3-fluoropyridin-4-amine]",10
3,"OCCN1CCN(Cc2ccn3nc(-c4ccccn4)nc(Nc4ccncc4F)c23)CC1 [Example 231, 2-[4-({4-[(3-fluoropyridin-4-yl)amino]-2-(pyridin-2-yl)pyrrolo[2,1-f][1,2,4]triazin-5-yl}methyl)piperazin-1-yl]ethan-1-ol]",2.3
4,"CC(O)CNCc1ccn2nc(-c3ccccn3)nc(Nc3ccncc3F)c12 (stereo not shown) [Example 239, 1-[({4-[(3-fluoropyridin-4-yl)amino]-2-(pyridin-2-yl)pyrrolo[2,1-f][1,2,4]triazin-5-yl}methyl)amino]propan-2-ol]",1.2
5,"Cc1cccc(-c2nc(Nc3ccncc3)c3cc(C(=O)Nc4ccccc4)cn3n2)n1 [Example 217, 2-(6-methylpyridin-2-yl)-N-phenyl-4-[(pyridin-4-yl)amino]pyrrolo[2,1-f][1,2,4]triazine-6-carboxamide]",7.7
6,"CC(C)n1cc(NCc2ccn3nc(-c4ccccn4)nc(Nc4ccncc4F)c23)cn1 [Example 302, 3-fluoro-N-[5-({[1-(propan-2-yl)-1H-pyrazol-4-yl]amino}methyl)-2-(pyridin-2-yl)pyrrolo[2,1-f][1,2,4]triazin-4-yl]pyridin-4-amine]",1.7
7,"COc1cccc(-c2nc(Nc3ccncc3F)c3c(CNC[C@@H](F)C(C)(C)O)ccn3n2)n1 [Example 120, (3R)-3-fluoro-4-[({4-[(3-fluoropyridin-4-yl)amino]-2-(6-methoxypyridin-2-yl)pyrrolo[2,1-f][1,2,4]triazin-5-yl}methyl)amino]-2-methylbutan-2-ol]",98
8,"Fc1cnccc1Nc1nc(-c2ccccn2)nn2ccc(CNCC3CCCCN3)c12 (stereo not shown) [Example 265, 3-fluoro-N-(5-{[(piperidin-2-ylmethyl)amino]methyl}-2-(pyridin-2-yl)pyrrolo[2,1-f][1,2,4]triazin-4-yl)pyridin-4-amine]",6.7
9,"COc1cccc(-c2nc(Nc3ccnc(NCCN4CCC(F)(F)CC4)c3)c3cccn3n2)n1 [Example 34, 2-N-[2-(4,4-difluoropiperidin-1-yl)ethyl]-4-N-[2-(6-methoxypyridin-2-yl)pyrrolo[2,1-f][1,2,4]triazin-4-yl]pyridine-2,4-diamine]",480
10,"Cc1csc(-c2nc(Nc3ccncc3F)c3cccn3n2)n1 [Example 12, 3-fluoro-N-[2-(4-methyl-1,3-thiazol-2-yl)pyrrolo[2,1-f][1,2,4]triazin-4-yl]pyridin-4-amine]",0.8
11,"Fc1cnccc1Nc1nc(-c2cccc(C(F)(F)F)n2)nn2ccc(CN3CCC(F)(F)CC3)c12 [Example 123, N-{5-[(4,4-difluoropiperidin-1-yl)methyl]-2-[6-(trifluoromethyl)pyridin-2-yl]pyrrolo[2,1-f][1,2,4]triazin-4-yl}-3-fluoropyridin-4-amine]",13
12,"COc1cccc(-c2nc(Nc3ccncc3)c3c(C)ccn3n2)n1 [Example 16, N-[2-(6-methoxypyridin-2-yl)-5-methylpyrrolo[2,1-f][1,2,4]triazin-4-yl]pyridin-4-amine]",9.4
13,"CS(=O)(=O)N(c1cc2c(Nc3ccncc3F)nc(-c3cccc(C(F)(F)F)n3)nn2c1)S(C)(=O)=O [Example 111, N-{4-[(3-fluoropyridin-4-yl)amino]-2-[6-(trifluoromethyl)pyridin-2-yl]pyrrolo[2,1-f][1,2,4]triazin-6-yl}-N-methanesulfonylmethanesulfonamide]",52
14,"Cc1cccc(-c2nc(Nc3ccncc3F)c3c(CN4CC[C@H](O)C4)ccn3n2)n1 [Example 252, (3S)-1-({4-[(3-fluoropyridin-4-yl)amino]-2-(6-methylpyridin-2-yl)pyrrolo[2,1-f][1,2,4]triazin-5-yl}methyl)pyrrolidin-3-ol]",0.49
15,"OC1(CCNCc2ccn3nc(-c4ccccn4)nc(Nc4ccncc4F)c23)CCCC1 [Example 240, 1-{2-[({4-[(3-fluoropyridin-4-yl)amino]-2-(pyridin-2-yl)pyrrolo[2,1-f][1,2,4]triazin-5-yl}methyl)amino]ethyl}cyclopentan-1-ol]",0.7
16,"CCc1cc2c(Nc3ccncc3F)nc(-c3cccc(OC)n3)nn2c1 [Example 42, N-[6-ethyl-2-(6-methoxypyridin-2-yl)pyrrolo[2,1-f][1,2,4]triazin-4-yl]-3-fluoropyridin-4-amine]",160
17,"N#CCCC(=O)Nc1cc(Nc2nc(-c3cccc(C(F)(F)F)n3)nn3cccc23)ccn1 [Example 338, 3-cyano-N-[4-({2-[6-(trifluoromethyl)pyridin-2-yl]pyrrolo[2,1-f][1,2,4]triazin-4-yl}amino)pyridin-2-yl]propanamide]",0.79
18,"Fc1cnccc1Nc1nc(-c2ccccn2)nn2ccc(CNCCN3CCCCC3)c12 [Example 284, 3-fluoro-N-[5-({[2-(piperidin-1-yl)ethyl]amino}methyl)-2-(pyridin-2-yl)pyrrolo[2,1-f][1,2,4]triazin-4-yl]pyridin-4-amine]",4.4
19,"Cc1nc(-c2nc(Nc3ccncc3Cl)c3cccn3n2)ccc1F [Example 3, 3-chloro-N-[2-(5-fluoro-6-methylpyridin-2-yl)pyrrolo[2,1-f][1,2,4]triazin-4-yl]pyridin-4-amine]",0.82
20,"COc1nc(-c2nc(Nc3ccncc3F)c3cccn3n2)cs1 [Example 249, 3-fluoro-N-[2-(2-methoxy-1,3-thiazol-4-yl)pyrrolo[2,1-f][1,2,4]triazin-4-yl]pyridin-4-amine]",5.8
21,"CC(C)(O)CNCc1ccn2nc(-c3cccc(C(F)F)n3)nc(Nc3ccncc3F)c12 [Example 116, 1-[({2-[6-(difluoromethyl)pyridin-2-yl]-4-[(3-fluoropyridin-4-yl)amino]pyrrolo[2,1-f][1,2,4]triazin-5-yl}methyl)amino]-2-methylpropan-2-ol]",2.3
22,"COc1cccc(-c2nc(Nc3ccncc3F)c3c(CCN4CCN(C)CC4)ccn3n2)n1 [Example 112, 3-fluoro-N-[2-(6-methoxypyridin-2-yl)-5-[2-(4-methylpiperazin-1-yl)ethyl]pyrrolo[2,1-f][1,2,4]triazin-4-yl]pyridin-4-amine]",360
23,"CCc1nnc(CNC(=O)c2cnccc2Nc2nc(-c3cccc(C(F)F)n3)nn3cccc23)o1 [Example 182, 4-({2-[6-(difluoromethyl)pyridin-2-yl]pyrrolo[2,1-f][1,2,4]triazin-4-yl}amino)-N-[(5-ethyl-1,3,4-oxadiazol-2-yl)methyl]pyridine-3-carboxamide]",16
24,"COc1cccc(-c2nc(Nc3ccncc3F)c3cc(NC(=O)CNC(=O)OC(C)(C)C)cn3n2)n1 [Example 108, tert-butyl N-[({4-[(3-fluoropyridin-4-yl)amino]-2-(6-methoxypyridin-2-yl)pyrrolo[2,1-f][1,2,4]triazin-6-yl}carbamoyl)methyl]carbamate]",330

# Further lines, results first:
row,IC50 [nM],Structure (SMILES)
1,23,"O=C(NC1CCC1)c1cnccc1Nc1nc(-c2cccc(C(F)F)n2)nn2cccc12 [Example 193, N-cyclobutyl-4-({2-[6-(difluoromethyl)pyridin-2-yl]pyrrolo[2,1-f][1,2,4]triazin-4-yl}amino)pyridine-3-carboxamide]"
2,1.6,"Nc1cccc(-c2nc(Nc3ccncc3F)c3cccn3n2)n1 [Example 53, 2-(6-aminopyridin-2-yl)-N-(3-fluoropyridin-4-yl)pyrrolo[2,1-f][1,2,4]triazin-4-amine]"
3,50,"Cc1cccc(-c2nc(Nc3ccncc3C(=O)NCC(C)(C)O)c3cccn3n2)n1 [Example 156, N-(2-hydroxy-2-methylpropyl)-4-{[2-(6-methylpyridin-2-yl)pyrrolo[2,1-f][1,2,4]triazin-4-yl]amino}pyridine-3-carboxamide]"
4,24,"CCOCCCNC(=O)c1cnccc1Nc1nc(-c2cccc(C(F)F)n2)nn2cccc12 [Example 172, 4-({2-[6-(difluoromethyl)pyridin-2-yl]pyrrolo[2,1-f][1,2,4]triazin-4-yl}amino)-N-(3-ethoxypropyl)pyridine-3-carboxamide]"
5,12,"CS(=O)(=O)Nc1cccc(-c2nc(Nc3ccncc3F)c3cccn3n2)n1 [Example 77, N-(6-{4-[(3-fluoropyridin-4-yl)amino]pyrrolo[2,1-f][1,2,4]triazin-2-yl}pyridin-2-yl)methanesulfonamide]"
6,21,"CC(C)(O)CCNC(=O)c1cnccc1Nc1nc(-c2cccc(C(F)F)n2)nn2cccc12 [Example 187, 4-({2-[6-(difluoromethyl)pyridin-2-yl]pyrrolo[2,1-f][1,2,4]triazin-4-yl}amino)-N-(3-hydroxy-3-methylbutyl)pyridine-3-carboxamide]"
7,34,"Cc1cccc(-c2nc(Nc3ccncc3C(=O)NC(C)(C)CO)c3cccn3n2)n1 [Example 157, N-(1-hydroxy-2-methylpropan-2-yl)-4-{[2-(6-methylpyridin-2-yl)pyrrolo[2,1-f][1,2,4]triazin-4-yl]amino}pyridine-3-carboxamide]"
8,9.2,"COc1cccc(-c2nc(Nc3ccncc3CO)c3cccn3n2)n1 [Example 206, (4-{[2-(6-methoxypyridin-2-yl)pyrrolo[2,1-f][1,2,4]triazin-4-yl]amino}pyridin-3-yl)methanol]"
9,3.9,"O=C(NCCO)c1cnccc1Nc1nc(-c2cccc(C(F)F)n2)nn2cccc12 [Example 192, 4-({2-[6-(difluoromethyl)pyridin-2-yl]pyrrolo[2,1-f][1,2,4]triazin-4-yl}amino)-N-(2-hydroxyethyl)pyridine-3-carboxamide]"
10,17,"O=C(NCCN1CCCC1)c1cnccc1Nc1nc(-c2cccc(C(F)(F)F)n2)nn2cccc12 [Example 170, N-[2-(pyrrolidin-1-yl)ethyl]-4-({2-[6-(trifluoromethyl)pyridin-2-yl]pyrrolo[2,1-f][1,2,4]triazin-4-yl}amino)pyridine-3-carboxamide]"
